Results reported in patent US7432286B1, “Pharmaceutically active sulfonyl hydrazide derivatives” (Laboratories Serono SA, priority 1999, dated 2008).

Tests used:
ERK2 = ERK2 (Homo sapiens, UniProt P28482); assay: ERK2 in vitro kinase assay (SPA, myelin basic protein substrate); assay type: biochemical; details: preactivated ERK
Procedure: (§1) JNK 2 and 3 in vitro assays: JNK3 and/or 2 assays are performed in 96 well MTT plates, by incubation of 0.5 μg of recombinant, pre-activated GST-JNK3 or GST-JNK2 with 1 μg of recombinant, biotinylated GST-c-Jun and 2 μM ^33γ-ATP (2 nCi/μl), in the presence or absence of sulfonamide inhibitors if formula I and in a reaction volume of 50 μl containing 50 mM Tris-HCl, pH 8.0; 10 mM MgCl2; 1 mM Dithiothreitol, and 100 μM NaVO4. The incubation is performed for 120 min. at R.T and stopped upon addition of 200 μl of a solution containing 250 μg of Streptavidine-coated SPA beads (Amersham, Inc.)*, 5 mM EDTA, 0.1% Triton X-100 and 50 μM ATP, in phosphate saline buffer. After incubation for 60 minutes at RT, beads are sedimented by centrifugation at 1500×g for 5 minutes, resuspended in 200 μl of PBS containing 5 mM EDTA, 0.1% Triton X-100 and 50 μM ATP and the radioactivity measured in a scintillation β counter, following sedimentation of the beads as described above. By substituting GST-c Jun for biotinylated GST-1ATF2 or myelin basic protein, this assay can be used to measure inhibition of preactivated p38 and ERK MAP Kinases, respectively.
(§2) The values indicated in respect of JNK2 and 3, p38 and ERK2 refer to the IC50 (μM), i.e. the amount necessary to achieve 50% inhibition of said target (e.g. JNK2). From the above table it could be derived that said test compounds according to formula I do have a significant effect both on JNK2 and 3, but virtually no effect onto p38 and ERK2, thus delivering a quite selective inhibitory effect.

[1] = system: IL-2 release by Jurkat cells; assay: IL-2 release assay (PMA+Ionomycine stimulated, ELISA); assay type: cell-based; details: Homo sapiens, 24 hours, read-out: % Inhibition of IL2 Production @ 3 uM
Procedure: Jurkat cells, a human T cell leukemia cell line (American Type Culture Collection # TIB 152) were cultured in RPMI 1640 medium (Gibco, BRL) supplemented with 10% of heatactivated FCS, Glutamine and Penstrep. The cell suspension in the medium is diluted to give 2.10^6 cells/mL. The cells were plated (2.10^5 cells/well) on a 96-well plate containing different concentration of test compound (final concentration of compounds, 10, 3, 1, 0.3, 0.1 μM). This mixture is incubated 30 minutes at 37° C. in a humidified CO2 atmosphere. Cells were then treated with 10 ul PMA+Ionomycine (0.1 μM and 1 μM final concentration) in all wells except negative control. In wells without compounds, 10 μl of RPMI 2% DMSO (=0.1% final) is added. Cells are incubated 24 hours at 37° C. and then the supernatant harvested (freeze at −20° C. if not used the same day) prior to performing IL-2 ELISA test on the supernatant.
IL-2 release into the medium by PMA+Iono-stimulated Jurkat cells, in presence or absence of test compounds is assayed by ELISA. Following the procedure described below
Transfer 100 μl capture antibody diluted in PBS at 5 μg/mL into a 96 well ELISA plate and incubate overnight at room temperature.
Aspirate each well and wash 3 times with Wash buffer. After the last wash, damp the plate.
1. Saturate with 200 μl PBS-10% FCS. Incubate 1 hour at room temperature.
2. Repeat the wash step 2.
• 1. Add 100 μl of sample or standard (2000, 1000, 500, 250, 125, 62.5, 31.25 pg/mL) and incubate 2 hours at room temperature. • 2. Wash 3 times. • 3. Add 100 μl of biotinylated anti-human IL-2 at 12.5 ng/mL. Incubate 2 hours at room temperature. • 4. Wash 3 times. • 5. Add 100 μl streptavidin-HRP (Zymed #43-4323) at 1:10,000. Incubate 30 minutes at room temperature. • 6. Wash 3 times • 7. Add 100 μl substrate solution (citric acid/Na2HPO4 (1:1)+H2O2 1:2000+OPD). Incubate 20-30 minutes at room temperature. • 8. Add 50 μl of stop solution to each well. • 9. Determine optical density using a microtiter plate reader set to 450 nm with correction at 570 nm.

GST-JNK2 = GST-JNK2 (Homo sapiens, UniProt P45984); assay: JNK2 in vitro assay (SPA, GST-c-Jun phosphorylation); assay type: biochemical; details: recombinant pre-activated GST-JNK2, 2 μM ATP
Procedure: as §1, §2

p38 = p38 (Homo sapiens, UniProt Q16539); assay: p38 in vitro kinase assay (SPA, GST-ATF2 substrate); assay type: biochemical; details: preactivated p38
Procedure: as §1, §2

GST-JNK3 = GST-JNK3 (Homo sapiens, UniProt P53779); assay: JNK3 in vitro assay (SPA, GST-c-Jun phosphorylation); assay type: biochemical; details: recombinant pre-activated GST-JNK3, 2 μM ATP
Procedure: as §1, §2

Hlr c-Jun HeLa cells = assay: C-Jun reporter assay (MEKK1 induced, Dual-Luciferase); assay type: cell-based; details: Homo sapiens
Procedure: Hlr c-Jun HeLa cells are cultured in DMEM High Glc supplemented with 10% FCS (Sigma), 2 mM Glutamine (Gibco), P/S, Hygromycin b 100 μg/mL and G418 250 μg/mL
The cell suspension are diluted with medium to give about 3.5×10^6 cells/mL and […] of cell suspension are put onto 210 cm culture dishes containing 9 mL of culture medium. The plates are incubated at 37° C. in a humidified atmosphere of 5% CO2 in air
• Control: 0.2 μg pTK Renilla, […] pBluescript KS, 500 μl OPTIMEM (GIBCO), 18 μl Fugene 6 • Induced: 0.1 μg pMEKK1, 0.2 μg pTK Renilla, 5.7 μg pBluescript KS, 500 μl OPTIMEM (GIBCO), 18 μl Fugene 630′ RT
The transfection mixture is added to the plated cells. The plates are incubated over night at 37° C. in a humidified atmosphere of 5% CO2 in air
A 96 wells plate containing 100 μl of culture medium per well is prepared Negative control (vehicle): 2 μl of DMSO is added to the 100 μl (in triplicate). Compound: 2 μl of Hit compound stock dilution are added to the 100 μl (in triplicate). The transfected cells are trypsinised and ressuspend in 12 mL of culture medium. 100 μl of the dilution are added to each of the 96 wells plate.
The plate is incubated over night at 37° C. in a humidified atmosphere of 5% CO2 in air
The medium is removed from the plate and the cells washed two times with 100 μl PBS Completely remove the rinse solution before applying PLB reagent. Dispense into each culture well […] of 1X PLB. Place the culture plates on a rocking platform or orbital shaker with gentle
rocking/shaking to ensure complete and even coverage of the cell monolayer with 1X PLB. Rock the culture plates at room temperature for 15 minutes. Transfer 20 μl of the lysate into a white opaque 96 wells plate. Read in a luminometer. • Inject 50 μl of Luciferase Assay Reagent II wait 5″, read 10″ • Inject 50 μl of Stop & Glo® Reagent wait 5″, read 10″
Check RLU Luciferase/RLU Renilla*1000

p38, sequence (Q16539 whole entry): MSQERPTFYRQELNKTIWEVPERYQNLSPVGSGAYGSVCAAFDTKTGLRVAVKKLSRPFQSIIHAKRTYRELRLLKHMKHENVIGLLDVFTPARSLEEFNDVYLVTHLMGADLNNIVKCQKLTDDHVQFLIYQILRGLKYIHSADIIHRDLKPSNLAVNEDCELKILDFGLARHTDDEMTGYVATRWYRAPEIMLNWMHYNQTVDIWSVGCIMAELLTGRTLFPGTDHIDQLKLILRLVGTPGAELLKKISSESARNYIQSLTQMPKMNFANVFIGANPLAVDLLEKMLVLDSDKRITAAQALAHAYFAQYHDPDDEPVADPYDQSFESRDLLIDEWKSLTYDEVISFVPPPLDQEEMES
ERK2, sequence (P28482 whole entry, species assumed): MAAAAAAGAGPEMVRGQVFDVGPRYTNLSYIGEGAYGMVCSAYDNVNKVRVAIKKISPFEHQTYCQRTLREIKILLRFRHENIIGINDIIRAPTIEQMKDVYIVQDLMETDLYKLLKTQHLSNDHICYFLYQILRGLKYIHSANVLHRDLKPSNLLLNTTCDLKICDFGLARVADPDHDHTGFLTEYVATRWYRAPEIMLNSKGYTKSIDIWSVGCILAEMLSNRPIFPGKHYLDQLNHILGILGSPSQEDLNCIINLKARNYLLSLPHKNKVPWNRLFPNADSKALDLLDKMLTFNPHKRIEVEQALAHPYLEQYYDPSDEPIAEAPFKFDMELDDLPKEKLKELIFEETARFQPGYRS
GST-JNK2, sequence (P45984 whole entry): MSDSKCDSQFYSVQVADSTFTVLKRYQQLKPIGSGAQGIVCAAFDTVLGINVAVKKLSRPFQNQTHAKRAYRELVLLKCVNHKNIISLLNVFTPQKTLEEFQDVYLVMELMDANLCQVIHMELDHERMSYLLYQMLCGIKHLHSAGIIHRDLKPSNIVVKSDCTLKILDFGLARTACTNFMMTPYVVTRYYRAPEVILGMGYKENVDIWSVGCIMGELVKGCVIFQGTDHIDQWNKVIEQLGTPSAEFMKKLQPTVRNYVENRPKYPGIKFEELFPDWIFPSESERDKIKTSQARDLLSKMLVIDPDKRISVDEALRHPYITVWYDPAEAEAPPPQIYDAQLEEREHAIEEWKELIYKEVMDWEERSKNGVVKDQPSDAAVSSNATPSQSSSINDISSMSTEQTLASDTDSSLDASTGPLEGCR
GST-JNK3, sequence (P53779 whole entry): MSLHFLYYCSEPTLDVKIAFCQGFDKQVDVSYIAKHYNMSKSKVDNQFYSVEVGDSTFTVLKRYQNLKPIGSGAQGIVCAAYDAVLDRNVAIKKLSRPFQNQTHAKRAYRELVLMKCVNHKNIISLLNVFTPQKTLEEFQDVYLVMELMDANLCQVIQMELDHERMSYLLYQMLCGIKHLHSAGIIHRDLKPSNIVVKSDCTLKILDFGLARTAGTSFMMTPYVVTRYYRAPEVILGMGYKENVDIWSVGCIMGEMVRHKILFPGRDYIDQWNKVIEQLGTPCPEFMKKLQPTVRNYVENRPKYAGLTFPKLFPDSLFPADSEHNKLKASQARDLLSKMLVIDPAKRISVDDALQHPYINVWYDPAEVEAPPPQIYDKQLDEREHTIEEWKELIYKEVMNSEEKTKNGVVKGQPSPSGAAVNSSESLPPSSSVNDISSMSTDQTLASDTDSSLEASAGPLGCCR

Structure (SMILES) | IC50 (ERK2) | IC50 (GST-JNK2) | IC50 (p38) | IC50 (GST-JNK3) | melting point | inhibition at 3 µM [1] | inhibition at 10 µM (Hlr c-Jun HeLa cells)
O=C(NCc1ccc(S(=O)(=O)NNC(=O)c2csc(COc3ccccc3Cl)n2)s1)c1ccc(Cl)cc1 [Example 13, 4-chloro-N-[(5-{[2-({2-[(2-chlorophenoxy)methyl]-1,3-thiazol-4-y1}carbonyl)hydrazino]sulfonyl}thien-2-yl)methyl]benzamide] | > 30000 nM | 970 nM | > 30000 nM | 310 nM |  | > 30% | > 20%
O=C(NCc1ccc(S(=O)(=O)NNC(=O)c2csc(-c3ccc(C4SCCS4)cc3)n2)s1)c1ccc(Cl)cc1 [Example 1, 4-chloro-N-[(5-{[2-({2-[4-(1,3-dithiolan-2-yl)phenyl]-1,3-thiazol-4-yl}carbonyl)-hydrazino]sulfonyl}thien-2-yl)methyl]benzamide] | > 30000 nM | 370 nM | > 30000 nM | 210 nM |  | > 30% | > 20%

More lines, main results first:

IC50 (ERK2) | IC50 (GST-JNK2) | IC50 (p38) | IC50 (GST-JNK3) | melting point | Structure (SMILES) | inhibition at 3 µM [1] | inhibition at 10 µM (Hlr c-Jun HeLa cells)
 |  |  |  | 174.5 to 175.5 °C | O=C(CCCNc1ncc(C(F)(F)F)cc1Cl)NNS(=O)(=O)c1ccc(CNC(=O)c2ccccc2O)s1 [Example 20, N-[(5-{[2-(4-{[3-chloro-5-(trifluoromethyl)pyridin-2-yl]amino}butanoyl)hydrazino]sulfonyl}thien-2-yl)methyl]-2-hydroxybenzamide] |  | 
> 30000 nM | 560 nM | > 30000 nM | 410 nM |  | O=C(CCCNc1ncc(C(F)(F)F)cc1Cl)NNS(=O)(=O)c1ccc(CNC(=O)c2ccc[nH]c2=O)s1 [Example 75, N-[(5-{[2-(4-{[3-chloro-5-(trifluoromethyl)pyridin-2-yl]amino}butanoyl)hydrazino]sulfonyl}thien-2-yl)methyl]-2-oxo-1,2-dihydropyridine-3-carboxamide] | > 30% | > 20%
> 30000 nM | 1020 nM | > 30000 nM | 250 nM |  | O=C(CCCNc1ncc(C(F)(F)F)cc1Cl)NNS(=O)(=O)c1ccc(CNC(=O)c2ccc(Cl)cc2)cc1 [Example 80, 4-chloro-N-(4-{[2-(4-{[3-chloro-5-(trifluoromethyl)pyridin-2-yl]amino}butanoyl)hydrazino]sulfonyl}benzyl)benzamide] | > 30% | > 20%
